USRE36832E, “N-heteroaryl-N'-phenylurea derivatives, their production and use” (Nihon Nohyaku Co., LTD, priority 1993, dated 2000)

What was measured:
[1] = target: T1, acyl-CoA:cholesterol O-acyltransferase (ACAT) (Oryctolagus cuniculus, UniProt G1SFD9); assay: Inhibitory activity on acyl-CoA:cholesterol O-acyltransferase (ACAT), intestinal mucosa microsomal fraction, [1-14C]oleyl-CoA incorporation into cholesterol esters; format: biochemical, white rabbit; conditions: read-out: Inhibition rate %
T1 construct: The intestinal mucosa of a white rabbit was homogenized and microsomal fraction was obtained by stepwise centrifugation; from tissue; host or cells: intestinal mucosa of white rabbit, microsomal fraction
T1 sequence (G1SFD9 1-524): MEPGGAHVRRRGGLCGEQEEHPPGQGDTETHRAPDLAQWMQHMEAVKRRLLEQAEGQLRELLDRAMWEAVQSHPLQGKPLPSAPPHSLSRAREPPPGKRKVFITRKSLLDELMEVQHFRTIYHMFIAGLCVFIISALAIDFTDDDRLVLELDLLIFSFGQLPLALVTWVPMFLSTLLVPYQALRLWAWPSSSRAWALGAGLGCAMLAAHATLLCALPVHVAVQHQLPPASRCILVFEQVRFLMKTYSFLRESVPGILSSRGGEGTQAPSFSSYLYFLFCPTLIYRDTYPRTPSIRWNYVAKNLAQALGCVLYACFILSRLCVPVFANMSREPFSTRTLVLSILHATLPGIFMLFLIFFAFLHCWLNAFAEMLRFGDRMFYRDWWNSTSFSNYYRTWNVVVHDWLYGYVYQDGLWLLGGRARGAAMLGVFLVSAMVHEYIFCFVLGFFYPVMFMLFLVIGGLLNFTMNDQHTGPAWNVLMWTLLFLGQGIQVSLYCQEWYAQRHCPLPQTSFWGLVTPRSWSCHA
Protocol: Inhibitory activity on acyl-CoA:cholesterol Oacyltransferase (ACAT)
The enzyme used in the test was prepared according to the method of Heider et al. [J. Lipid, Res. 24, 1127 (1983)]. The intestinal mucosa of a white rabbit was homogenized and microsomal fraction was obtained by stepwise centrifugation. The microsomal fraction was suspended in 0,154M phosphate buffer (pH 0 7.4) and stored at -80° C. until use.
ACAT activity was determined by a modification of the method of Helgerud et al. [J. Lipid Res. 22, 271 (1981)] by measuring radioactivity incorporated into cholesterol esters from [1-14C]oleyl-CoA, as an indication. As to the ACAT-inhibiting activity of each compound to be tested, the inhibition rate was calculated by the following equation.

serum cholesterol = assay: Serum cholesterol lowering activity in hamsters fed on a high-cholesterol diet; format: in vivo, Male Syrian hamsters; conditions: 30 mg per kg of body weight per day for 4 days, 24 hours after the last administration
Protocol: Serum cholesterol lowering activity in hamsters fed on a high-cholesterol diet
Male Syrian hamsters of 10-week-old were divided into three groups. The first group (normal group) was fed an ordinary diet for 4 days. The second group (control group) was fed a high cholesterol diet (containing 0.5% cholesterol and 8.0% coconut oil for 4 days. The third group (treated group) was fed a high cholesterol diet and was treated with a compound for 4 days. Simultaneously with the beginning of the above feeding, the compound suspended in a 0.5% carboxymethyl cellulose solution was administered to the treated group, in a dose of 30 mg (in terms of the compound) per kg of body weight per day for 4 days. A 0.5% carboxymethyl cellulose solution was also administered to the normal group and the control group in the same manner as above. After 24 hours of the last administration, blood was collected and the cholesterol concentration in serum was measured by an enzymatic method. The reduction rate of the total serum cholesterol concentration was calculated from values obtained for the three groups by the following equation. [formula] wherein A: the serum cholesterol concentration of the control group.
B: the serum cholesterol concentration of the compound treated group.
C: the serum cholesterol concentration of the normal group.

[2] = tested on: cholesterol esterification in macrophages; assay: Inhibitory effect on cholesterol esterification in macrophages (J774 A.1 cells, AcLDL-loaded, [14C]oleate incorporation); format: cell-based; conditions: Mus musculus, Macrophage, read-out: Inhibition rate (%)
Protocol: Inhibitory effect on cholesterol esterification in macrophages
The test was carried out by a modification of the method of Goldstein et al. [Pro. Nat. Acad. Sci. USA 71, 4288 (1974)]. J774 A.1 cells, the mouse macropharge-like cell line, were suspended in Dulbecco's modified Eagle's medium (DMEM) containing 10% fetal calf serum (FCS), in a proportion of 3×10^5 cells per 2 ml and were seeded into in 6-well plates. The cells were cultured under a humidified atmosphere of 95% air/5% CO2 at 37° C. for 24 hours. The medium was replaced by 1 ml of DMEM containing 10% of FCS and 50 μg/ml of acetylated human low density lipoprotein (AcLDL), followed by culturing for 16 hours. Five microliters each compound was dissolved in dimethyl sulfoxide and solution was added to the medium, followed by culturing for another 2 hours. Then, [14C]oleate (2×10^6 dpm/well) bovine serum albumin complex was added in the medium. After 2 hours of culture cells were collected and the cholesterol-esterifying activity was determined by measuring radioactivity incorporated into cholesterol esters in the cells. The recovery of the cholesterol esters was determined by the addition of [3H]cholesteryl oleate, and the esterifying activity was corrected using the recovery. As to the inhibitory activity on cholesterol esterification of the compound to be tested, the inhibition rate was calculated by the following equation. [formula] wherein A: the cholesterol-esterifying activity of AcLDL-loaded cells to which the compound to be tested was-added.
B: the cholesterol-esterifying activity of AcLDL-loaded cells to which dimethyl sulfoxide was added.

Row | SMILES | inhibition at 0.01 µM [1] [%] | inhibition at 1 µM ([1]; 1 μM) [%] | Reduction rate (%) of the total serum cholesterol concentration (serum cholesterol) [%] | inhibition at 0.1 µM [2] [%] | inhibition at 1 µM [2] [%]
1 | CCc1cccc(CC)c1NC(=O)Nc1oc2ccc(Cl)cc2c1-c1ccccc1Cl [Compound 12, N-[5-Chloro-3-(2-chlorophenyl)benzofuran-2-yl]-N'-(2,6-diethylphenyl)urea] | 82.9 | 99.4 | 55.0 | 93 | 99.5
2 | CCc1cccc(CC)c1NC(=O)Nc1sc2cc(C)c(C)cc2c1-c1ccccc1Cl [Compound 80, N-[3-(2-Chlorophenyl)-5,6-dimethyl-1-benzothiophen-2-yl]-N'-(2,6-diethylphenyl)urea] | 69.9 |  | 85.9 | 85.3 | 96.9
